In patent publication US10052306B2 (LUC THERAPEUTICS, INC., priority 2013, dated 2018):

What was measured:
NR1/NR2B [1] = molecular target: NR1/NR2B (Homo sapiens (Human), UniProt Q05586+Q13224); assay: Cell assay: FDSS Ca2+ influx inhibition in HEK293 cells expressing NR1/NR2B; details: Binned Activity, HEK293 cells expressing NR1/NR2B, Ca2+ influx; binned NR2B NAM IC50;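 note: Fluo-8 Ca2+ signal read on Hamamatsu FDSS 6000 after glutamate, glycine and Ca2+ challenge following 10 min compound preincubation, end/baseline fluorescence ratio compared with MK801 control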
Method: (§1) Cell Culture and plating: HEK293 cells expressing NR1/NR2B (Chantest, Cleveland, Ohio) were grown to 70-80% confluency as an adherent monolayer in standard tissue culture flasks at 37° C., 5% CO2 per supplier's instructions. NR2B expression was induced by incubation with 0.3-0.4 μg/ml tetracycline in the presence of 4 mM ARL-15896 for 18-24 hours under the same growth conditions, then transferred to 30° C. for another 3-5 hours.
(§2) After induction, cell culture medium was removed and cells were rinsed once with Ca^2+ and Mg^2+-free Dulbecco's phosphate buffered saline. Cells were then removed from the flask using TrypLE™ Express (Life Technologies) according to the manufacturer's instructions and collected to 50 ml centrifuge tubes. Following two washes in Ca^2+/Mg^2+-free HBSS with 20 mM HEPES (HHnoCa), cells were counted and viability assessed using trypan blue. To load cells with Ca^2+-sensitive dye, they were resuspended in fluo-8 plus Component B (AAT Bioquest Products) diluted in HHnoCa and incubated 15 minutes at 37° C., followed by 30 minutes at room temp (in dark). Cells were then washed and resuspended in HHnoCa to remove extracellular dye and plated in 384-well plates (Falcon, uncoated) at 20,000-30,000 cells/well in a final volume of 25 μl/well.
(§3) FDSS Assay: To each well of the plate, 10 μL test compound, control (MK801) or HHnoCa buffer was added to a final concentration of 10 μM with a final concentration of DMSO of 0.1%. Following 10 minutes pre-incubation in the dark, plates are loaded onto the Hamamatsu FDSS 6000. After collecting baseline fluorescence images, 3 μM glutamate, 3 glycine, and 1 mM Ca^2+ in HHnoCa buffer is added to each well, and Ca^2+ is recorded for 3 minutes. Data were processed by computing ratio of fluorescence at the end of data collection to baseline fluorescence to assess degree of Ca′ influx inhibition relative to that observed in MK801.

NR1/NR2B [2] = molecular target: NR1/NR2B (Homo sapiens (Human), UniProt Q13224); assay: as above; details: read-out: NR2B NAM IC50; HEK293 cells expressing NR1/NR2B, Ca2+ influx
Chain of NR1/NR2B (Homo sapiens (Human), UniProt Q13224) (Q13224 27-1484, other chains not shown): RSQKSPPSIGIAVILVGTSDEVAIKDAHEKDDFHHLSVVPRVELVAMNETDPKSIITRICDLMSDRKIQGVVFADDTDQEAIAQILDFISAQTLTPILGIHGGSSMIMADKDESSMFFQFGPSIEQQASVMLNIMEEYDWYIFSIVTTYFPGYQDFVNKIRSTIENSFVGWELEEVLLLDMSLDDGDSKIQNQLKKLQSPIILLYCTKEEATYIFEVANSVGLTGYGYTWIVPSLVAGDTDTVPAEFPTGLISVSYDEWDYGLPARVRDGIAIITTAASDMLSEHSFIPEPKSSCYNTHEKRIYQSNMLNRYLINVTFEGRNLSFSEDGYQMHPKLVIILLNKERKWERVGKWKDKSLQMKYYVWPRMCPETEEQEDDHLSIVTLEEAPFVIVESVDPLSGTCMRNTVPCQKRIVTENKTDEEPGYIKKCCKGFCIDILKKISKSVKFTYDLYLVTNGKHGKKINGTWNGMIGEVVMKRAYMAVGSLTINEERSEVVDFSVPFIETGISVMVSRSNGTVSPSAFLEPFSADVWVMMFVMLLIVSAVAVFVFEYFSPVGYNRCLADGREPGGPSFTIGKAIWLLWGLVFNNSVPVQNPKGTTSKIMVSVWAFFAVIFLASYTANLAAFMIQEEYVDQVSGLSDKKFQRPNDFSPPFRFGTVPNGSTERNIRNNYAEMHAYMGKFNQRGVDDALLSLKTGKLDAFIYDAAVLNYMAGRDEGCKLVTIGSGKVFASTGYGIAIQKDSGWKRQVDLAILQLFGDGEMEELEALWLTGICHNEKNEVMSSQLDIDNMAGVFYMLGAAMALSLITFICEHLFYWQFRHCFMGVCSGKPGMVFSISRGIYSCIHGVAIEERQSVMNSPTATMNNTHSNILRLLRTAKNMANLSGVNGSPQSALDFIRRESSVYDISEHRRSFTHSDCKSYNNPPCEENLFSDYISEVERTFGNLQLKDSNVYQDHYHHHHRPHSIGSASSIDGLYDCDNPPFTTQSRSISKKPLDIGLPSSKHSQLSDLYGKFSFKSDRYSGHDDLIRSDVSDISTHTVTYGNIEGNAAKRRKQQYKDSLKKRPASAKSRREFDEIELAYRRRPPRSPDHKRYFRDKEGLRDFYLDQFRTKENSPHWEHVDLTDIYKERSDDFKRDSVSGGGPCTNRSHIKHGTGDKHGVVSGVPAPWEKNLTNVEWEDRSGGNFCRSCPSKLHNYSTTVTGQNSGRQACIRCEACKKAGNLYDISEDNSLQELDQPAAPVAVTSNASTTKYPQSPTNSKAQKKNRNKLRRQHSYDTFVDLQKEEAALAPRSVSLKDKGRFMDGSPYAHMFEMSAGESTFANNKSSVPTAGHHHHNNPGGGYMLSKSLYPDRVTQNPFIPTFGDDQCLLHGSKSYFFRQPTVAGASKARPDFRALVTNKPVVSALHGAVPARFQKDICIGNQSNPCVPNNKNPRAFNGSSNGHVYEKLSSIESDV
Method: as §1, §2, §3

Chain of NR1/NR2B (Homo sapiens (Human), UniProt Q05586+Q13224) (Q13224 27-1484, other chains not shown): as above

SMILES | IC50 (NR1/NR2B [1]) [µM] | IC50 (NR1/NR2B [2]) [µM]
O=C(CN1C[C@@H]2C[C@@](O)(Cc3ccc(F)cc3F)C[C@@H]2C1)c1ccc(O)cc1 [Example 238, 2-(5-(2,4-difluorobenzyl)-5-hydroxyhexahydrocyclo-penta[c]pyrrol-2(1H)-yl)-1-(4-hydroxyphenyl)ethanone] | < 0.1 | 0.0516
Cc1ccccc1-c1cccc(C(=O)CN2C[C@@H]3C[C@@](O)(Cc4ccccc4)C[C@@H]3C2)c1 [Example 278, 2-((3aR,5r,6aS)-5-benzyl-5-hydroxyhexahydrocyclo-penta[c]pyrrol-2(1H)-yl)-1-(2′-methyl-[1,1′-biphenyl]-3-yl)ethanone] | > 10 | 10
Oc1ccc([C@H](O)CN2C[C@@H]3C[C@@](O)(Cc4ccccc4)C[C@@H]3C2)cc1 [Example 137, (3aR,5S,6aS)-5-benzyl-2-((S)-2-hydroxy-2-(4-hydroxyphenyl)ethyl)octa-hydrocyclopenta[c]pyrrol-5-ol] | < 0.1 | 0.0204
O=C(CN1C[C@H]2C[C@H](Cc3ccccc3)C[C@H]2C1)c1ccc(O)c(F)c1 [Example 308, 2-[(3aR,5R,6aS)-5-benzyl-octahydrocyclopenta[c]pyrrol-2-yl]-1-(3-fluoro-4-hydroxyphenyl) ethan-1-one] | < 0.1 | 0.0522
COc1ccc(NC(=O)N2C[C@@H]3C[C@@](O)(c4ccccc4)C[C@@H]3C2)cc1 [Example 1, 5-hydroxy-N-(4-methoxyphenyl)-5-phenylhexahydrocyclopenta[c]pyrrole-2(1H)-carboxamide] | > 10 | 10
O=C(CN1C[C@@H]2C[C@@](O)(CC3CC3)C[C@@H]2C1)c1ccc(O)cc1 [Example 210, 2-((3aR,5r,6aS)-5-(cyclopropylmethyl)-5-hydroxyhexahydrocyclo-penta[c]pyrrol-2(1H)-yl)-1-(4-hydroxyphenyl)ethanone] | > 10 | 10
CS(=O)(=O)Nc1ccc(C(=O)CN2C[C@@H]3C[C@@](O)(Cc4ccccc4)C[C@@H]3C2)cc1 [Example 146, N-(4-(2-((3aR,5r,6aS)-5-benzyl-5-hydroxyhexahydrocyclo-penta[c]pyrrol-2(1H)-yl)acetyl)phenyl)methane-sulfonamide] | 0.1 to 1 | 0.326
O=C(Nc1cccc(Cl)c1)N1C[C@@H]2C[C@@](O)(Cc3ccccc3)C[C@@H]2C1 [Example 118, (3aR,5r,6aS)-5-benzyl-N-(3-chlorophenyl)-5-hydroxyhexahydrocyclo-penta[c]pyrrole-2(1H)-carboxamide] | > 10 | 10
O=C(CN1C[C@H]2C[C@@H](Cc3ccccc3)C[C@H]2C1)c1ccc(O)c(F)c1 [Example 307, 2-[(3aR,5S,6aS)-5-benzyl-octahydrocyclopenta[c]pyrrol-2-yl]-1-(3-fluoro-4-hydroxyphenyl) ethan-1-one] | < 0.1 | 0.0412
O=C(CN1C[C@@H]2C[C@@](O)(Cc3ccccc3)C[C@@H]2C1)c1cccc(-c2ccc(F)cc2)c1 [Example 274, 2-((3aR,5r,6aS)-5-benzyl-5-hydroxyhexahydrocyclo-penta[c]pyrrol-2(1H)-yl)-1-(4′-fluoro-[1,1′-biphenyl]-3-yl)ethanone] | > 10 | 10
COc1ccc(C)cc1NC(=O)N1C[C@@H]2C[C@@](O)(c3ccc(F)cc3)C[C@@H]2C1 [Example 42] | > 10 | 10
O[C@@]1(c2ccc(F)cc2)C[C@H]2CN(c3cccc(C(F)(F)F)n3)C[C@H]2C1 [Example 81, 5-(4-fluorophenyl)-2-[6-(trifluoromethyl)pyridin-2-yl]-octahydrocyclopenta[c] pyrrol-5-ol] | > 10 | 10
COc1ccc(C(=O)CN2C[C@@H]3C[C@@](O)(Cc4ccccc4)C[C@@H]3C2)cn1 [Example 161, 2-((3aR,5r,6aS)-5-benzyl-5-hydroxyhexahydrocyclo-penta[c]pyrrol-2(1H)-yl)-1-(6-methoxypyridin-3-yl)ethanone] | > 10 | 10
COc1cccc([C@]2(O)C[C@H]3CN(C(=O)Nc4ccccc4)C[C@H]3C2)c1 [Example 29, 5-hydroxy-5-(3-methoxyphenyl)-N-phenyl-octahydrocyclopenta[c] pyrrole-2-carboxamide] | > 10 | 10
O=C(CN1C[C@@H]2C[C@@](O)(Cc3ccccc3)C[C@@H]2C1)c1ccc(O)cc1 [Example 130, 2-((3aR,5r,6aS)-5-benzyl-5-hydroxyhexahydrocyclo-penta[c]pyrrol-2(1H)-yl)-1-(4-hydroxyphenyl)ethanone] | < 0.1 | 0.0441
Cc1cc(F)ccc1C[C@]1(O)C[C@H]2CN(CC(=O)c3ccc(O)cc3)C[C@H]2C1 [Example 250, 2-((3aR,5r,6aS)-5-(4-fluoro-2-methylbenzyl)-5-hydroxyhexahydrocyclo-penta[c]pyrrol-2(1H)-yl)-1-(4-hydroxyphenyl)ethanone] | 0.1 to 1 | 0.137

SMILES | IC50 (NR1/NR2B [1]) [µM] | IC50 (NR1/NR2B [2]) [µM]
O=C(Nc1cccc(Cl)c1)N1C[C@H]2C[C@@H](c3ccccc3)C[C@H]2C1 [Example 106, N-(3-chlorophenyl)-5-phenyl-octahydrocyclopenta[c] pyrrole-2-carboxamide] | > 10 | 10
COc1ccc(C(=O)CN2C[C@@H]3C[C@@](O)(Cc4ccccc4)C[C@@H]3C2)cc1 [Example 132, 2-((3aR,5r,6aS)-5-benzyl-5-hydroxyhexahydrocyclo-penta[c]pyrrol-2(1H)-yl)-1-(4-methoxyphenyl)ethanone] | > 10 | 10
CO[C@@]1(Cc2ccccc2)C[C@H]2CN(CC(=O)c3ccc(O)c(F)c3)C[C@H]2C1 [Example 170, 2-((3aR,5r,6aS)-5-benzyl-5-methoxyhexahydrocyclo-penta[c]pyrrol-2(1H)-yl)-1-(3-fluoro-4-hydroxyphenyl)ethanone] | 0.1 to 1 | 0.132
COc1cccc(C[C@]2(O)C[C@H]3CN(CC(=O)c4ccc(O)c(F)n4)C[C@H]3C2)c1 [Example 200, 1-(6-fluoro-5-hydroxypyridin-2-yl)-2-((3aR,5r,6aS)-5-hydroxy-5-(3-methoxy-benzyl)hexahydro-cyclopenta[c]pyrrol-2(1H)-yl)ethanone] | > 10 | 10
O=C(CN1C[C@@H]2C[C@@](O)(Cc3ccccn3)C[C@@H]2C1)c1ccc(O)cc1 [Example 231, 2-((3aR,5r,6aS)-5-hydroxy-5-(pyridin-2-ylmethyl)hexahydro-cyclopenta[c]pyrrol-2(1H)-yl)-1-(4-hydroxyphenyl)ethanone] | 0.1 to 1 | 0.965
O=C(CN1C[C@H]2C[C@@H](Cc3ccccc3)C[C@H]2C1)c1ccc(O)cc1 [Example 303, 2-[(3aR,5S,6aS)-5-benzyl-octahydrocyclopenta[c]pyrrol-2-yl]-1-(4-hydroxyphenyl)ethan-1-onefluorophenol] | < 0.1 | 0.0388
O=C(CN1C[C@H]2C[C@@H](CCc3ccccc3)C[C@H]2C1)c1ccc(O)cc1 [Example 324, 1-(4-hydroxyphenyl)-2-((3aR,5r,6aS)-5-phenethylhexa-hydrocyclo-penta[c]pyrrol-2(1H)-yl)ethanone] | 0.1 to 1 | 0.215
Cc1ccc(NC(=O)N2C[C@H]3C[C@@H](c4ccccc4)C[C@H]3C2)c(C)c1 [Example 110, N-(2,4-dimethylphenyl)-5-phenyl-octahydrocyclopenta[c] pyrrole-2-carboxamide] | > 10 | 10
CC(C)(C)C(=O)Nc1ccc(C(=O)CN2C[C@@H]3C[C@@](O)(Cc4ccccc4)C[C@@H]3C2)cn1 [Example 285, N-(5-(2-(5-benzyl-5-hydroxyhexahydrocyclo-penta[c]pyrrol-2(1H)-yl)acetyl)pyridin-2-yl)pivalamide] | > 10 | 10
O=C(Nc1ccc(O)cc1)N1C[C@H]2C[C@@H](c3ccccc3)C[C@H]2C1 [Example 100, N-(4-hydroxyphenyl)-5-phenyl-octahydrocyclopenta[c] pyrrole-2-carboxamide] | > 10 | 10
O=C(Nc1cccc(C(F)(F)F)c1)N1C[C@H]2C[C@@H](c3ccccc3)C[C@H]2C1 [Example 105, 5-phenyl-N-[3-(trifluoromethyl)phenyl]-octahydrocyclopenta[c] pyrrole-2-carboxamide] | > 10 | 10
COc1cccc(NC(=O)N2C[C@H]3CC(Cc4ccccc4)C[C@H]3C2)c1 (stereo partly drawn) [Example 294, (3aR,6aS)-5-benzyl-N-(3-methoxyphenyl) hexahydro-cylcopenta[c]pyrrole-2(1H)-carboxamide] | > 10 | 10
O=C(CN1C[C@@H]2C[C@@](O)(Cc3ccc(F)c(F)c3)C[C@@H]2C1)c1ccc(O)cn1 [Example 239, 2-((3aR,5r,6aS)-5-(3,4-difluorobenzyl)-5-hydroxyhexahydrocyclo-penta[c]pyrrol-2(1H)-yl)-1-(5-hydroxypyridin-2-yl)ethanone] | > 10 | 10
N#Cc1cccc(NC(=O)N2C[C@H]3C[C@@H](c4ccccc4)C[C@H]3C2)c1 [Example 107, N-(3-cyanophenyl)-5-phenyl-octahydrocyclopenta[c] pyrrole-2-carboxamide] | > 10 | 10
COc1ccc(NC(=O)N2C[C@H]3C[C@@H](c4ccccc4)C[C@H]3C2)cc1 [Example 99, 2 N-(4-methoxyphenyl)-5-phenylhexahydrocyclo-penta[c]pyrrole-2(1H)-carboxamide] | > 10 | 10
